Experimental findings from PubChem BioAssay AID248 (DTP/NCI, 2004) are described below.

Toxic doses and inconclusive results are not listed.

This assay has as its system L1210 leukemia ip in BDF1 mice, survival T/C. Put plainly: NCI In Vivo Anticancer Drug Screen. Data for tumor model L1210 Leukemia (intraperitoneal) in B6D2F1 (BDF1) mice. As to conditions: higher = longer survival. The method, boiled down: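 Transplanted-tumor mice were given test agent; controls received vehicle only. Survival readings from the two groups were divided (treated over control).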

[1] abbreviates: endpoint: mean survival time, dose: 100.0 mg/kg/injection, schedule: Q04DX003 (ip), vehicle: saline with Tween-80.
Where [2] appears, read: endpoint: mean survival time, dose: 200.0 mg/kg/injection, schedule: Q04DX003 (ip), vehicle: saline with Tween-80.
Setting [3] is: endpoint: mean survival time, dose: 400.0 mg/kg/injection, schedule: Q04DX003 (ip), vehicle: saline with Tween-80.
Where [4] appears, read: endpoint: mean survival time, dose: 100.0 mg/kg/injection, schedule: Q01DX001 (ip), vehicle: saline.
Setting [5] is: endpoint: mean survival time, dose: 200.0 mg/kg/injection, schedule: Q01DX001 (ip), vehicle: saline.
Where [6] appears, read: endpoint: mean survival time, dose: 100.0 mg/kg/injection, schedule: Q01DX001 (ip), vehicle: saline with Tween-80.
Where [7] appears, read: endpoint: mean survival time, dose: 12.5 mg/kg/injection, schedule: Q01DX009 (ip), vehicle: saline with Tween-80.
Where [8] appears, read: endpoint: mean survival time, dose: 25.0 mg/kg/injection, schedule: Q01DX009 (ip), vehicle: saline with Tween-80.

`NC(=O)c1ccccc1NC(=O)Nc1ccccc1C(F)(F)F`: the T/C was 98 % of control (endpoint: mean survival time, dose: 100.0 mg/kg/injection, schedule: Q01DX009 (ip), vehicle: Klucel (hydroxypropylcellulose) (HPC)); 98 % of control (endpoint: mean survival time, dose: 200.0 mg/kg/injection, schedule: Q01DX009 (ip), vehicle: Klucel (hydroxypropylcellulose) (HPC)); 100 % of control (endpoint: mean survival time, dose: 400.0 mg/kg/injection, schedule: Q01DX009 (ip), vehicle: Klucel (hydroxypropylcellulose) (HPC)).

`CC(=O)Nc1ccc2c(c1)C(NC(=O)/C=C\C(=O)O)c1ccccc1-2` (stereo not drawn): the T/C runs as follows: under setting [1], 111 % of control; under setting [2], 98 % of control; under setting [3], 107 % of control.

As to `CN(C(=S)Nc1ccccc1)c1cc(N2CCCC2)ccn1`, the T/C under setting [4] is 98 % of control and the T/C under setting [5] was 98 % of control.

`Nc1ncnc2nccnc12`: the T/C runs as follows: (endpoint: mean survival time, dose: 25.0 mg/kg/injection, schedule: Q01DX Z (ip), vehicle: saline) 103 % of control; (endpoint: mean survival time, dose: 75.0 mg/kg/injection, schedule: Q01DX Z (ip), vehicle: saline) 89 % of control.

As for `O=S(=O)(/N=C1\C=CC=C\C1=N/S(=O)(=O)c1ccccc1)c1ccccc1`, the T/C was 103 % of control under setting [6]; 100 % of control (endpoint: mean survival time, dose: 200.0 mg/kg/injection, schedule: Q01DX001 (ip), vehicle: saline with Tween-80); 92 % of control (endpoint: mean survival time, dose: 400.0 mg/kg/injection, schedule: Q01DX001 (ip), vehicle: saline with Tween-80).

`O=C(Cl)COc1c(Cl)cc(Cl)cc1Cl`: the T/C was 107 % of control (endpoint: mean survival time, dose: 100.0 mg/kg/injection, schedule: Q04DX002 (ip), vehicle: saline with Tween-80); 107 % of control (endpoint: mean survival time, dose: 200.0 mg/kg/injection, schedule: Q04DX002 (ip), vehicle: saline with Tween-80); 103 % of control (endpoint: mean survival time, dose: 400.0 mg/kg/injection, schedule: Q04DX002 (ip), vehicle: saline with Tween-80).

As to `CN1CCN(C2CCCc3ccccc3C2O)CC1` (stereo not drawn), the T/C (endpoint: mean survival time, dose: 5.0 mg/kg/injection, schedule: Q01DX001 (ip), vehicle: saline) is 109 % of control; the T/C (endpoint: mean survival time, dose: 10.0 mg/kg/injection, schedule: Q01DX001 (ip), vehicle: saline) is 105 % of control; the T/C (endpoint: mean survival time, dose: 20.0 mg/kg/injection, schedule: Q01DX001 (ip), vehicle: saline) was 103 % of control; the T/C (endpoint: mean survival time, dose: 40.0 mg/kg/injection, schedule: Q01DX001 (ip), vehicle: saline) was 103 % of control.

Regarding `Cn1c(=O)c2[nH]c(CCCSSCCCc3nc4c([nH]3)c(=O)n(C)c(=O)n4C)nc2n(C)c1=O`, the T/C under setting [4] is 96 % of control; the T/C under setting [5] was 96 % of control; the T/C (endpoint: mean survival time, dose: 400.0 mg/kg/injection, schedule: Q01DX001 (ip), vehicle: saline) was 96 % of control.

Turning to `Nc1nc(=O)c2[nH]cnc2n1O`, the T/C under setting [7] is 96 % of control; the T/C (endpoint: mean survival time, dose: 16.5 mg/kg/injection, schedule: Q01DX009 (ip), vehicle: saline) was 112 % of control; the T/C under setting [8] is 215 % of control; the T/C (endpoint: mean survival time, dose: 25.0 mg/kg/injection, schedule: Q01DX009 (ip), vehicle: saline) was 100 % of control; the T/C (endpoint: mean survival time, dose: 50.0 mg/kg/injection, schedule: Q01DX009 (ip), vehicle: saline with Tween-80) was 88 % of control; the T/C (endpoint: mean survival time, dose: 55.0 mg/kg/injection, schedule: Q01DX009 (ip), vehicle: saline) is 110 % of control.

As to `CCCCCCCCCCOC(CN)C(Cl)(Cl)Cl` (stereo not drawn), the T/C was 93 % of control under setting [7]; 98 % of control (endpoint: mean survival time, dose: 12.5 mg/kg/injection, schedule: Q04DX003 (ip), vehicle: saline with Tween-80); 97 % of control under setting [8]; 101 % of control (endpoint: mean survival time, dose: 25.0 mg/kg/injection, schedule: Q04DX003 (ip), vehicle: saline with Tween-80); 103 % of control (endpoint: mean survival time, dose: 50.0 mg/kg/injection, schedule: Q04DX003 (ip), vehicle: saline with Tween-80).

As to `NC(CSC(c1ccccc1)(c1ccccc1)c1ccc(CBr)cc1)C(=O)O` (stereo not drawn), the T/C (endpoint: mean survival time, dose: 50.0 mg/kg/injection, schedule: Q01DX009 (ip), vehicle: other) is 105 % of control; the T/C (endpoint: mean survival time, dose: 100.0 mg/kg/injection, schedule: Q01DX009 (ip), vehicle: other) is 115 % of control; the T/C (endpoint: mean survival time, dose: 200.0 mg/kg/injection, schedule: Q01DX009 (ip), vehicle: other) is 121 % of control.

Turning to `CN(CCO)/N=N/c1[nH]ncc1C(N)=O`, the T/C is 124 % of control (endpoint: mean survival time, dose: 54.0 mg/kg/injection, schedule: Q01DX009 (ip), vehicle: other); 159 % of control (endpoint: mean survival time, dose: 176.0 mg/kg/injection, schedule: Q01DX009 (ip), vehicle: other); 163 % of control (endpoint: mean survival time, dose: 345.0 mg/kg/injection, schedule: Q01DX009 (ip), vehicle: saline with Tween-80); 159 % of control (endpoint: mean survival time, dose: 400.0 mg/kg/injection, schedule: Q01DX009 (ip), vehicle: other); 109 % of control (endpoint: mean survival time, dose: 472.25 mg/kg/injection, schedule: Q01DX001 (ip), vehicle: saline with Tween-80); 189 % of control (endpoint: mean survival time, dose: 600.0 mg/kg/injection, schedule: Q01DX009 (ip), vehicle: other). The T/C (endpoint: mean survival time, dose: 690.0 mg/kg/injection, schedule: Q01DX009 (ip), vehicle: saline with Tween-80) was 192 % of control; the T/C (endpoint: mean survival time, dose: 900.0 mg/kg/injection, schedule: Q01DX009 (ip), vehicle: other) was 196 % of control; the T/C (endpoint: mean survival time, dose: 944.5 mg/kg/injection, schedule: Q01DX001 (ip), vehicle: saline with Tween-80) was 119 % of control; the T/C (endpoint: median survival time, dose: 63.0 mg/kg/injection, schedule: Q01DX009 (ip), vehicle: saline) was 119 % of control; the T/C (endpoint: median survival time, dose: 250.0 mg/kg/injection, schedule: Q01DX009 (ip), vehicle: saline) was 156 % of control; the T/C (endpoint: median survival time, dose: 500.0 mg/kg/injection, schedule: Q01DX009 (ip), vehicle: saline) was 173 % of control. Besides, the T/C (endpoint: median survival time, dose: 1000.0 mg/kg/injection, schedule: Q01DX009 (ip), vehicle: saline) is 201 % of control.

Regarding `CC(C)(C)OC(=O)N/N=C/c1ccc([N+](=O)[O-])s1`, the T/C was 94 % of control under setting [1], 98 % of control under setting [2] and 89 % of control under setting [3].

Take `CN/C([S-])=N/N=C/C(=N/N=C(\[S-])NC)c1ccc(-c2ccccc2)cc1.[Cu+2]`: the T/C reads like this: (endpoint: mean survival time, dose: 100.0 mg/kg/injection, schedule: Q04DX002 (ip), vehicle: Klucel (hydroxypropylcellulose) (HPC)) 106 % of control; (endpoint: mean survival time, dose: 200.0 mg/kg/injection, schedule: Q04DX002 (ip), vehicle: Klucel (hydroxypropylcellulose) (HPC)) 95 % of control; (endpoint: mean survival time, dose: 400.0 mg/kg/injection, schedule: Q04DX002 (ip), vehicle: Klucel (hydroxypropylcellulose) (HPC)) 100 % of control.

In the case of `C=CCN1CCCCC1C1(c2ccccc2)CCCC1` (stereo not drawn), the T/C (endpoint: mean survival time, dose: 75.0 mg/kg/injection, schedule: Q01DX001 (ip), vehicle: acid diluted with saline) was 92 % of control.

As to `Nc1ncnc2nc(-c3cccc(OCCCOc4ccccc4)c3)[nH]c12`, the T/C is 95 % of control (endpoint: mean survival time, dose: 75.0 mg/kg/injection, schedule: Q01DX001 (ip), vehicle: gum acacia); 93 % of control (endpoint: mean survival time, dose: 150.0 mg/kg/injection, schedule: Q01DX001 (ip), vehicle: gum acacia); 91 % of control (endpoint: mean survival time, dose: 300.0 mg/kg/injection, schedule: Q01DX001 (ip), vehicle: gum acacia).

For the molecule `CCCc1cc(C)cc(N=Cc2ccccc2)c1O`, the T/C by setting is: under setting [1], 101 % of control; under setting [2], 97 % of control; under setting [3], 98 % of control.

`Cc1cc(C)n(/N=C/c2ccc3c(c2)CCC3)c(=O)c1C#N`: the T/C was 95 % of control (endpoint: mean survival time, dose: 200.0 mg/kg/injection, schedule: Q04DX003 (ip), vehicle: Klucel (hydroxypropylcellulose) (HPC)) and 90 % of control (endpoint: mean survival time, dose: 400.0 mg/kg/injection, schedule: Q04DX003 (ip), vehicle: Klucel (hydroxypropylcellulose) (HPC)).

For `O=C(Nc1cccc(C2=NCCCN2)c1)c1ccc(C(=O)Nc2cccc(C3=NCCCN3)c2)c([N+](=O)[O-])c1`, the T/C runs as follows: (endpoint: mean survival time, dose: 0.05 mg/kg/injection, schedule: Q01DX015 (ip), vehicle: water) 98 % of control; (endpoint: mean survival time, dose: 0.09 mg/kg/injection, schedule: Q01DX015 (ip), vehicle: water) 96 % of control; (endpoint: mean survival time, dose: 0.19 mg/kg/injection, schedule: Q01DX015 (ip), vehicle: water) 98 % of control; (endpoint: mean survival time, dose: 0.38 mg/kg/injection, schedule: Q01DX015 (ip), vehicle: water) 101 % of control; (endpoint: mean survival time, dose: 0.5 mg/kg/injection, schedule: Q01DX015 (ip), vehicle: water) 97 % of control.

As to `O=C(Oc1ccccc1)c1ccc2[nH]c(=O)c(C(=O)O)nc2c1`, the T/C (endpoint: mean survival time, dose: 25.0 mg/kg/injection, schedule: Q01DX001 (ip), vehicle: saline with Tween-80) is 96 % of control; the T/C (endpoint: mean survival time, dose: 50.0 mg/kg/injection, schedule: Q01DX001 (ip), vehicle: saline with Tween-80) is 100 % of control; the T/C under setting [6] is 98 % of control.
